Measured values taken from PMC11788587, “Validating Low‐Dose Iohexol as a Marker for Glomerular Filtration Rate by In Vitro and In Vivo Studies” (Clinical and Translational Science, 2025).

Molecular target: T1, hOCT1 (Homo sapiens, UniProt O15245)
T1 construct: expressed in transfected cells; host or cells: HEK-293 (293) cells, pEBTetD plasmid, doxycycline-induced
T1 sequence (O15245 1-554): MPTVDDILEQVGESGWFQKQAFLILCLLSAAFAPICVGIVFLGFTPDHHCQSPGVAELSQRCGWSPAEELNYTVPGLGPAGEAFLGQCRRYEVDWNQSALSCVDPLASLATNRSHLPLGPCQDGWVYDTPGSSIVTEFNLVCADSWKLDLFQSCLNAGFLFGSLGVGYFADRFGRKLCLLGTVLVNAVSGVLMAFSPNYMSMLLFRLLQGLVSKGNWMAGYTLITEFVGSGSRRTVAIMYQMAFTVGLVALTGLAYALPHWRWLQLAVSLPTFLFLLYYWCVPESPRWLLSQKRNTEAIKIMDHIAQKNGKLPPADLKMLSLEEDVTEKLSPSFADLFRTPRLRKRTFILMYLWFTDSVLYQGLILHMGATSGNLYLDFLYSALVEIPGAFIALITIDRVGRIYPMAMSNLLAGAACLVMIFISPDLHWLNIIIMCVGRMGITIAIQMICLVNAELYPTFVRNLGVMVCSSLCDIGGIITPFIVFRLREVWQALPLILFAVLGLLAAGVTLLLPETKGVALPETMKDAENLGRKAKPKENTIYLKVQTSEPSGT
Assay: Substrate assessment: iohexol uptake in 293 cells expressing hOCT1 vs control
Type: in vitro ADME
Conditions: 10 μM iohexol, median (95% CI)
From the text: We characterized the inhibitory potential of iohexol on major drug transporters recommended by regulatory agencies, which were previously assessed in a clinical transporter phenotyping cocktail study. These transporters include hOAT1, hOAT3, hOCT1, hOCT2, hMATE1, hMATE2K, human organic anion transporter polypeptides (hOATP)1B1, hOATP1B3, and human multidrug resistance protein (hMDR)1. Additionally, we investigated whether iohexol is a substrate for any of the renal transporters among these, including hOAT1/3, hOCT1/2, and hMATE1/2K. Cell‐based uptake assays were used to assess the activities of hOAT1/3, hOCT1/2, hMATE1/2K, and hOATP1B1/1B3. Inside‐out membrane vesicle uptake assays were used to evaluate the activity of hMDR1.
For substrate assessments, iohexol was incubated with stably transfected HEK‐293 cells expressing one of the following transporters: hOAT1, hOAT3, hOCT1, hOCT2, hMATE1, or hMATE2K, as well as with control cells lacking transporter expression. Stably transfected cell lines containing pEBTetD plasmids with wild‐type human transporter cDNAs were generated as previously described. Transporter expression was induced by adding 1 μg/mL doxycycline to the growth medium for at least 20 h. Iohexol would be considered a substrate for these transporters if: (1) the ratio of iohexol uptake in cells expressing the transporter to that in control cells was ≥ 2, and (2) a known inhibitor of the transporter reduced iohexol uptake to ≤ 50% at concentrations ≥ 10 times its inhibition constant or half‐maximal inhibitory concentration.
Uptake assays were performed using stably transfected 293 cells, with or without the expression of one of the following transporters: hOAT1, hOAT3, hOCT1, hOCT2, hMATE1, or hMATE2K, as previously described.^1
For the substrate assessment, cells were incubated with 10 µM iohexol for 10 minutes and 30 minutes for each transporter. Inhibition assays were performed using specific standard substrates for each transporter: 10 µM para-aminohippuric acid (PAH) for hOAT1, 3 µM estrone-3-sulfate (E3S) for hOAT3, 50 µM metformin for hOCT1, 5 µM metformin for hOCT2, and 3 µM 1-methyl-4-phenylpyridinium (MPP+) for hMATE1 and hMATE2K. […]
R version 4.2.1 (R Foundation for Statistical Computing, Vienna, Austria) was used for statistical evaluations and data visualization. The data analysis approach for the in vitro study was detailed by Hsin CH et al..^1 In brief, for transport assays, the initial uptake rate was calculated by normalizing the substrate concentration to both the protein concentration and the incubation time for each dish or well. The transporter-mediated uptake rate (net uptake) was determined by performing an element-wise subtraction of uptake rates from different conditions. […]

Differences in intracellular accumulation (expression on minus off) (10 minutes): 0.16 (-1.8 to 0.79) pmol/mg protein
Uptake ratio (transporter-expressing vs non-expressing cells) (10 minutes): 1 (0.84 to 1.1)
Differences in intracellular accumulation (expression on minus off) (30 minutes): -0.51 (-1.1 to -0.15) pmol/mg protein
Uptake ratio (transporter-expressing vs non-expressing cells) (30 minutes): 0.89 (0.79 to 0.97)
Compound: CC(=O)N(CC(O)CO)c1c(I)c(C(=O)NCC(O)CO)c(I)c(C(=O)NCC(O)CO)c1I (stereo not shown) [iohexol]
